Assay results: publication PMC7221589, “Development of a Rapid Mass Spectrometric Determination of AMP and Cyclic AMP for PDE3 Activity Study: Application and Computational Analysis for Evaluating the Effect of a Novel 2-oxo-1,2-dihydropyridine-3-carbonitrile Derivative as PDE-3 Inhibitor” (Molecules, 2020)

Target: PDE3A (phosphodiesterase enzyme 3A) (Homo sapiens, UniProt Q14432)
Assay: MS/MS assay of cAMP hydrolysis to AMP by purchased PDE3A, dose-response
Type: biochemical

Sequence of PDE3A (phosphodiesterase enzyme 3A) (Q14432 whole entry): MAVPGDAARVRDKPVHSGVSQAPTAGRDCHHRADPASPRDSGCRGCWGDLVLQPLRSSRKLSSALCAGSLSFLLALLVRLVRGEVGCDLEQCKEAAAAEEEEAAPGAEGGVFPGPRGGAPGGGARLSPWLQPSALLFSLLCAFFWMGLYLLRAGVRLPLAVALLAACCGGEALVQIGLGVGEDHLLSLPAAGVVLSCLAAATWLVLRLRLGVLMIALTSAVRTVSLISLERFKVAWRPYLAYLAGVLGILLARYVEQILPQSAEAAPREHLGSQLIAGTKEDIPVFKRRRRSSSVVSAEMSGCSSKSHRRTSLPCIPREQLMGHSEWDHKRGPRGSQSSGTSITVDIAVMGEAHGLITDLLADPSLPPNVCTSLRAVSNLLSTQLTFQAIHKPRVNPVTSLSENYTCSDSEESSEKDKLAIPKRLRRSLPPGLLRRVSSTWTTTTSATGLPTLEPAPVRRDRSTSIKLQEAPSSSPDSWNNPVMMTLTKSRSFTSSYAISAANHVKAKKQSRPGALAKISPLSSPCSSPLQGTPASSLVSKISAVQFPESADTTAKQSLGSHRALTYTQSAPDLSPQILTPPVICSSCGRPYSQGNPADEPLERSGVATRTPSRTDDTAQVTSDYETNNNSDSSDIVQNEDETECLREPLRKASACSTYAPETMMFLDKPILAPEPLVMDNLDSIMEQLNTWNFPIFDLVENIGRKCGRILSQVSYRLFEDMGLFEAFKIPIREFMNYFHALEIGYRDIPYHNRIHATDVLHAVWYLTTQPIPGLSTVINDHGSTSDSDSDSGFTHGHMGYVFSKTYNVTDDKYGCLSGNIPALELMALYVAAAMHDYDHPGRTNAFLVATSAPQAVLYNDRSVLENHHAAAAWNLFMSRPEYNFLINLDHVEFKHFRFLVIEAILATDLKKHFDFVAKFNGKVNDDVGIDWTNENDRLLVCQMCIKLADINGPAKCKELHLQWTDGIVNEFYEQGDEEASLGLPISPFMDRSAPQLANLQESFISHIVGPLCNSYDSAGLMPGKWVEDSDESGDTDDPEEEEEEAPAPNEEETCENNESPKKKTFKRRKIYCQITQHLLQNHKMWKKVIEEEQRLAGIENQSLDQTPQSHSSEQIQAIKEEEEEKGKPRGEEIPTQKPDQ

## CCOC(=O)N1CCC(NC(=O)c2cc(C#N)c(=O)[nH]c2C)CC1 [DF492]
  IC50: 0.41 µM
